Read-outs that look alike come from different tables or passages of the source.
Columns and labels:
[1] = test system: mature seeds of zoysiagrass; assay: Callus induction from mature seeds on MS media with growth hormone combinations; assay type: cell-based, Zoysia japonica Steud.; details: for Callus producing seeds (%) / Number of callus producing seeds: MS, 3 months
Procedure: Seeds of zoysiagrass (Zoysia japonica Steud.), from which seed coats were first removed, were sterilized by soaking in 70% ethyl alcohol for 1 min and subsequently in 5% sodium hypochlorite solution supplemented with 0.001% (v/v) Tween 20 for 15 min. The sterilized seeds were then thoroughly rinsed with sterilized distilled water 3-4 times. They were then germinated and grown for 2 weeks on the N6 media (pH 5.8) containing 1 mg/L 2,4-dichlorophenoxyacetic acid, 3% sucrose, and 0.2% gelite and subject to callus induction. The callus induction and growth was carried out in a controlled environment culture room set at 26° C. and 70% humidity in the dark.
(§1) To examine the effects of plant growth hormones on the callus induction efficiency and the callus morphology, sterilized seeds were placed and cultured on the MS plates supplemented with 4 mg/L thiamine-HCl and 100 mg/L α-ketoglutaric acid. The MS plates, each with a diameter of 9 cm, were further supplemented with various amounts of 2,4-dichlorophenoxyacetic acid (0, 1, 2, 4, 8 mg/L) and 6-benzylaminopurine (0, 0.02, 0.2, 2, 4 mg/L). One hundred seeds were grown per each MS plate, and 3 plates were used for each treatment group. After three months, the number of seeds from which calli had been induced was counted. For the morphological classification of calli, calli were induced and grown on the MS media supplemented with 6-benzylaminopurine and 2,4-dichlorophenoxyacetic acid under the identical condition as described above for three months. They could be morphologically classified into four distinct groups (I-IV), based on the callus morphology, color, and rigidity.
To investigate the effects of plant growth hormones on the callus induction, the mature seed-derived callus induction rates were measured on the MS media supplemented with different amounts of 2,4-dichlorophenoxyacetic acid and 6-benzylaminopurine after grown for three months.
Seeds were plated and grown on the MS media containing 4 mg/L thiamine-HCl, 100 mg/L α-ketoglutaric acid, and different concentration combinations of 2,4-dichlorophenoxyacetic acid and 6-benzylaminopurine for 3 months.

[2] = test system: Type I calli derived from mature seeds of zoysiagrass; assay: Effects of cytokinins on shoot induction from callus; assay type: cell-based, Zoysia japonica Steud.; details: 44 Type I calli tested, MS with 30 g/L maltose, 2 weeks
[3] = test system: Type I calli derived from mature seeds of zoysiagrass; assay: as above; assay type: cell-based, Zoysia japonica Steud.; details: for Number of shoots over 5 mm / Number of shoots per callus lump: Type I calli, MS with 30 g/L maltose, 2 weeks
Procedure: The media were additionally supplemented with 1 or 4 mg/L of kinetin, 6-benzylaminopurine, or TDZ. Each treatment consisted of 3 MS plates, each with 16 calli.

[4] = test system: Type I calli derived from mature seeds of zoysiagrass; details: for Calli with green shoot (%) / Number of shoots per callus lump / Shoots over 2 mm (%): Type I calli, 2 weeks
Procedure: To examine the effects of various sugars on the plant regeneration efficiency from calli, the type I calli were dissected into lumps with a diameter of 2 mm and grown on the MS media containing 1 mg/L TDZ and 3% (w/v) fructose, galactose, glucose, maltose, or sucrose. For each treatment, 3 MS plates, each with 25 calli, were used. […] To determine the optimal concentration of maltose, the type I calli were grown on the MS media supplemented with various concentrations of maltose at 1.5, 3.0, 4.5, 6.0, 7.5, or 9%.
The effects of different sugars on the plant regeneration efficiency from calli were examined using the shoot induction media (SIM) supplemented with different sugars.
Type I calli were cultured on the MS medium containing 1 mg/L TDZ for 2 weeks. Each value in the second column represents a mean calculated from 25 calli per each experiment. Each value in the third column represents a mean calculated from 10 calli for each experiment.
Type I calli were cultured on the MS medium containing 1 mg/L TDZ and various concentrations of maltose for 2 weeks.

[5] = test system: callus derived from mature seeds of zoysiagrass; assay: Morphology (types I-IV) of callus induced with growth hormone combinations; assay type: cell-based, Zoysia japonica Steud.; details: 6-benzylaminopurine 0 mg/L, MS, 3 months
Procedure: as §1
Calli induced on the MS media supplemented with different concentration combinations of 2,4-dichlorophenoxyacetic acid and 6-benzylaminopurine were morphologically and physiologically analysed. Four distinct callus types (types I to IV) could be apparently discriminated by callus color, morphology, and rigidity (FIG. 1).
Seeds were plated on the MS media containing 4 mg/L thiamine-HCl, 100 mg/L α-ketoglutaric acid, and different concentration combinations of 2,4-dichlorophenoxyacetic acid and 6-benzylaminopurine for 3 months. Callus morphologies were rated by; type I: with yellow and differentiated structure, type II: with white, non-friable, and compact structure, type III: with yellow, friable, and compact structure, Type IV: with whitish yellow, friable, soft, and watery appearance. Type I˜III represents the sum of the numbers of types I to III.

[6] = 2,4-dichlorophenoxyacetic acid 0 mg/L, 6-benzylaminopurine 0.02 mg/L
[7] = 2,4-dichlorophenoxyacetic acid 0 mg/L, 6-benzylaminopurine 0.2 mg/L
[8] = 2,4-dichlorophenoxyacetic acid 0 mg/L, 6-benzylaminopurine 2 mg/L
[9] = 2,4-dichlorophenoxyacetic acid 0 mg/L, 6-benzylaminopurine 4 mg/L
[10] = sugar 30 g/L, MS medium with 1 mg/L TDZ
[11] = maltose 15 g/L, MS with 1 mg/L TDZ
[12] = maltose 30 g/L, MS with 1 mg/L TDZ
[13] = maltose 45 g/L, MS with 1 mg/L TDZ
[14] = maltose 60 g/L, MS with 1 mg/L TDZ
[15] = maltose 75 g/L, MS with 1 mg/L TDZ
[16] = maltose 90 g/L, MS with 1 mg/L TDZ
[17] = 2,4-dichlorophenoxyacetic acid 1 mg/L, 6-benzylaminopurine 0 mg/L
[18] = 2,4-dichlorophenoxyacetic acid 2 mg/L, 6-benzylaminopurine 0 mg/L
[19] = 2,4-dichlorophenoxyacetic acid 4 mg/L, 6-benzylaminopurine 0 mg/L
[20] = 2,4-dichlorophenoxyacetic acid 8 mg/L, 6-benzylaminopurine 0 mg/L
[21] = 2,4-dichlorophenoxyacetic acid 1 mg/L
[22] = 2,4-dichlorophenoxyacetic acid 2 mg/L
[23] = 2,4-dichlorophenoxyacetic acid 4 mg/L
[24] = 2,4-dichlorophenoxyacetic acid 8 mg/L

For `c1ccc(CNc2ncnc3nc[nH]c23)cc1` [6-benzylaminopurine], the “Callus producing seeds (%)” value [1, 6] was 0 (0) %, the “Number of callus producing seeds” value [1, 6] was 0 (0) and the “Callus producing seeds (%)” value [1, 7] was 0 (0) %. For the same compound, the “Number of callus producing seeds” value [1, 7] was 0 (0), the “Callus producing seeds (%)” value [1, 8] was 0 (0) % and the “Number of callus producing seeds” value [1, 8] was 0 (0). For the same compound, the “Callus producing seeds (%)” value [1, 9] was 0 (0) %, the “Number of callus producing seeds” value [1, 9] was 0 (0) and the “Number of calli with shoots” value ([2]; growth regulator 1 mg/L) was 17. The “Number of calli with shoots” value ([2]; growth regulator 4 mg/L) was 9, the “Number of shoots over 5 mm” value ([3]; growth regulator 1 mg/L) was 19 and the “Number of shoots per callus lump” value ([3]; growth regulator 1 mg/L) was 5.2. The “Number of shoots over 5 mm” value ([3]; growth regulator 4 mg/L) was 1 and the “Number of shoots per callus lump” value ([3]; growth regulator 4 mg/L) was 3.7.
For `OC[C@H]1O[C@@](CO)(O[C@H]2O[C@H](CO)[C@@H](O)[C@H](O)[C@H]2O)[C@@H](O)[C@@H]1O` [Sucrose, sucrose], the “Calli with green shoot (%)” value [4, 10] was 45.3 ± 9.3%, the “Number of shoots per callus lump” value [4, 10] was 4.5 ± 0.1 and the “Shoots over 2 mm (%)” value [4, 10] was 4.5 ± 0.2%.
`OC[C@H]1O[C@H](O[C@H]2[C@H](O)[C@@H](O)C(O)O[C@@H]2CO)[C@H](O)[C@@H](O)[C@@H]1O` (mixture of isomers) [Maltose, maltose] was tested, and the “Colour of leaf and stem margins of regenerated plants” value [4] was “exhibited color caused by accumulation of anthocyanin-related pigments”, the “Physical stress on cultured cells (anthocyanin accumulation in regenerated shoots)” value [4] was “confers a physical stress on the cultured cells” and the “Calli with green shoot (%)” value [4, 11] was 37.3%. The “Number of shoots per callus lump” value [4, 11] was 9.9 ± 0.1, the “Shoots over 2 mm (%)” value [4, 11] was 45.2 ± 3.4% and the “Calli with green shoot (%)” value [4, 12] was 36.0%. For the same compound, the “Number of shoots per callus lump” value [4, 12] was 12.9 ± 1.2, the “Shoots over 2 mm (%)” value [4, 12] was 51.4 ± 3.9% and the “Calli with green shoot (%)” value [4, 13] was 32.0%. The “Number of shoots per callus lump” value [4, 13] was 10.2 ± 1.3, the “Shoots over 2 mm (%)” value [4, 13] was 32.1 ± 3.6% and the “Calli with green shoot (%)” value [4, 14] was 29.3%. For the same compound, the “Number of shoots per callus lump” value [4, 14] was 4.9 ± 0.6, the “Shoots over 2 mm (%)” value [4, 14] was 14.5 ± 5.5% and the “Calli with green shoot (%)” value [4, 15] was 30.7%. For the same compound, the “Number of shoots per callus lump” value [4, 15] was 8.3 ± 0.9, the “Shoots over 2 mm (%)” value [4, 15] was 27.3 ± 4.0% and the “Calli with green shoot (%)” value [4, 16] was 28.0%. For the same compound, the “Number of shoots per callus lump” value [4, 16] was 2.5 ± 0.3, the “Shoots over 2 mm (%)” value [4, 16] was 6.7 ± 0.2% and the “Calli with green shoot (%)” value [4, 10] was 33.3 ± 2.7%. The “Number of shoots per callus lump” value [4, 10] was 9.4 ± 0.3 and the “Shoots over 2 mm (%)” value [4, 10] was 46.4 ± 5.0%.
With `O=C(Nc1ccccc1)Nc1cnns1` [TDZ, thidiazuron] the “Number of calli with shoots” value ([2]; growth regulator 1 mg/L) was 17, the “Number of calli with shoots” value ([2]; growth regulator 4 mg/L) was 10 and the “Number of shoots over 5 mm” value ([3]; growth regulator 1 mg/L) was 14. The “Number of shoots per callus lump” value ([3]; growth regulator 1 mg/L) was 4.8, the “Number of shoots over 5 mm” value ([3]; growth regulator 4 mg/L) was 1 and the “Number of shoots per callus lump” value ([3]; growth regulator 4 mg/L) was 4.1. For the same compound, the “Growth of regenerated plants” value ([3]; high concentration of TDZ) was “severely retarded”, the “Morphology of regenerated plants” value ([3]; high concentration of TDZ) was “plants with abnormal morphology were observed at a high frequency” and the “Plant regeneration and further growth” value ([3]; only the TDZ included) was “plant regeneration was observed, but the plants did not continue growing”.
For `O=C[C@H](O)[C@@H](O)[C@@H](O)[C@H](O)CO` [Galactose, galactose], the “Calli with green shoot (%)” value [4, 10] was 0%, the “Number of shoots per callus lump” value [4, 10] was 0 and the “Shoots over 2 mm (%)” value [4, 10] was 0%.
In the case of `O=C(O)COc1ccc(Cl)cc1Cl` [2,4-dichlorophenoxyacetic acid], the “Callus producing seeds (%)” value [1, 17] is reported as 15.5%, the “Number of callus producing seeds” value [1, 17] is reported as 47 and the “Callus producing seeds (%)” value [1, 18] is reported as 10.7%. The “Number of callus producing seeds” value [1, 18] was 18, the “Callus producing seeds (%)” value [1, 19] was 15.7% and the “Number of callus producing seeds” value [1, 19] was 19. The “Callus producing seeds (%)” value [1, 20] was 11.1%, the “Number of callus producing seeds” value [1, 20] was 38 and the “Fate of induced calli” value ([1]; MS media with higher than 4 mg/L of the hormone) was “the calli became brownish as they grew and eventually died”. For the same compound, the “Calli Type I˜III (sum of types I to III) (%)” value (shortened to “Calli Type I˜III … (%)”) [5, 21] was 8.5%, the “Calli showing Type I morphology (%)” value [5, 21] was 4.3% and the “Calli showing Type II morphology (%)” value [5, 21] was 0 (0) %. The “Calli showing Type III morphology (%)” value [5, 21] was 4.3%, the “Calli showing Type IV morphology (%)” value [5, 21] was 91.5% and the “Number of calli Type I˜III (sum of types I to III)” value (“Number of calli Type I˜III” for short) [5, 21] was 4. For the same compound, the “Number of calli showing Type I morphology” value [5, 21] was 2, the “Number of calli showing Type II morphology” value [5, 21] was 0 (0) and the “Number of calli showing Type III morphology” value [5, 21] was 2. The “Number of calli showing Type IV morphology” value [5, 21] was 43, the “Calli Type I˜III … (%)” value [5, 22] was 5.6% and the “Calli showing Type I morphology (%)” value [5, 22] was 0 (0) %. For the same compound, the “Calli showing Type II morphology (%)” value [5, 22] was 0 (0) %, the “Calli showing Type III morphology (%)” value [5, 22] was 5.6% and the “Calli showing Type IV morphology (%)” value [5, 22] was 94.4%. For the same compound, the “Number of calli Type I˜III” value [5, 22] was 1, the “Number of calli showing Type I morphology” value [5, 22] was 0 (0) and the “Number of calli showing Type II morphology” value [5, 22] was 0 (0). The “Number of calli showing Type III morphology” value [5, 22] was 1, the “Number of calli showing Type IV morphology” value [5, 22] was 17 and the “Calli Type I˜III … (%)” value [5, 23] was 5.3%. The “Calli showing Type I morphology (%)” value [5, 23] was 0 (0) %, the “Calli showing Type II morphology (%)” value [5, 23] was 0 (0) % and the “Calli showing Type III morphology (%)” value [5, 23] was 5.3%. For the same compound, the “Calli showing Type IV morphology (%)” value [5, 23] was 94.7%, the “Number of calli Type I˜III” value [5, 23] was 1 and the “Number of calli showing Type I morphology” value [5, 23] was 0 (0). For the same compound, the “Number of calli showing Type II morphology” value [5, 23] was 0 (0), the “Number of calli showing Type III morphology” value [5, 23] was 1 and the “Number of calli showing Type IV morphology” value [5, 23] was 18. The “Calli Type I˜III … (%)” value [5, 24] was 0 (0) %, the “Calli showing Type I morphology (%)” value [5, 24] was 0 (0) % and the “Calli showing Type II morphology (%)” value [5, 24] was 0 (0) %. The “Calli showing Type III morphology (%)” value [5, 24] was 0 (0) %, the “Calli showing Type IV morphology (%)” value [5, 24] was 100% and the “Number of calli Type I˜III” value [5, 24] was 0 (0). For the same compound, the “Number of calli showing Type I morphology” value [5, 24] was 0 (0), the “Number of calli showing Type II morphology” value [5, 24] was 0 (0) and the “Number of calli showing Type III morphology” value [5, 24] was 0 (0). For the same compound, the “Number of calli showing Type IV morphology” value [5, 24] was 38.
With `O=C(CO)[C@@H](O)[C@H](O)[C@H](O)CO` [Fructose, fructose] the “Calli with green shoot (%)” value [4, 10] was 17.3 ± 2.7%, the “Number of shoots per callus lump” value [4, 10] was 4.4 ± 0.8 and the “Shoots over 2 mm (%)” value [4, 10] was 12.6 ± 3.0%.
With `c1coc(CNc2ncnc3[nH]cnc23)c1` [Kinetin, kinetin] the “Number of calli with shoots” value ([2]; growth regulator 1 mg/L) was 8, the “Number of calli with shoots” value ([2]; growth regulator 4 mg/L) was 7 and the “Number of shoots over 5 mm” value ([3]; growth regulator 1 mg/L) was 0. The “Number of shoots per callus lump” value ([3]; growth regulator 1 mg/L) was 3.0, the “Number of shoots over 5 mm” value ([3]; growth regulator 4 mg/L) was 0 and the “Number of shoots per callus lump” value ([3]; growth regulator 4 mg/L) was 1.7.
